Test results as given in article PMC6026317, “Molecular elements in FGF19 and FGF21 defining KLB/FGFR activity and specificity” (Molecular Metabolism, 2018).

Assays:
Hep3B cells = test: Agonist pERK AlphaLISA assay in Hep3B cells; format: cell-based, human; conditions: 10 min at 37° C, n = 3
Description: 293T HEK cells expressing KLB (or KL) or Hep3B cells were plated to 5–6 x 10^4 cells/well density in 96-well cell culture plate coated with poly-D-Lysine (Corning). The cells were serum starved for four hours in 0.1% BSA fraction V (ThermoFisher) containing media prior to treatment with protein and/or an antagonist peptide at the mentioned concentrations for 10 min at 37° C. For the antagonist assays, a chosen fixed dose within the range of 0.8–30 nM (depending on the cell type) of FGF21 or FGF19 stimulant was added to all the wells. BaF3 cells expressing human KLB/FGFR1c or human KLB/FGFR4-1c chimera were seeded at 5 × 10^5 cells/well density in 96-well cell culture plate and serum-starved overnight. FGF21/19 analogs were diluted in 0.02% Tween-20 containing RPMI1640 medium and the cells were treated for 15 min at 37° C. […] Phosphorylated ERK1/2 (pERK) levels were subsequently recorded by EnSpire Alpha or Envision Multilabel plate reader (Perkin Elmer). […]
(§1) All cellular phosphorylation data were analyzed using 3-parameter non-linear regression curve in GraphPad Prism 7. […] Each peptide and protein analog was tested in triplicates in three independent experiments (n = 3), and normalized graphs plotted are expressed as mean ± SD unless otherwise noted.

[1] = tested on: human FGFR4-1c chimera/KLB; test: Agonist pERK AlphaScreen assay in BaF3 cells, FGFR4-1c chimera/KLB; format: cell-based; conditions: BaF3 cells co-expressing KLB and FGFR4-1c chimera; 15 min at 37° C; n = 3
Source text: (§2) For generating receptor specific BaF3 cell line, human FGFR1c cDNA was cloned into pMXs-IRES-Puro vector (Cell Biolabs) to generate the expression plasmid pMX-FGFR1c-IRES-Puro. Human FGFR4 sequence was re-engineered to enhance signaling by constructing chimeric cDNA encoding the extracellular region of FGFR4 fused to the intracellular region and tyrosine kinase domain of FGFR1c, and the chimeric sequence was cloned into pMX-IRES-Puro vector to generate the expression plasmid pMX-chimeric FGFR4-1c-IRES-Puro. Human KLB cDNA was cloned into pMXs-IRES-Neo vector (Cell Biolabs) to generate expression plasmid pMX-KLB-IRES-Neo. BaF3 cells were transfected with pMX-FGFR1c-IRES-Puro and pMX- FGFR4-1c chimera-IRES-Puro expression plasmids respectively by electroporation (Xcell machine, Bio-Rad, 950 μF, 370V). Cells were selected with media containing 1 μg/ml Puromycin for 10–12 days. […]
(§3) 293T HEK cells expressing KLB (or KL) or Hep3B cells were plated to 5–6 x 10^4 cells/well density in 96-well cell culture plate coated with poly-D-Lysine (Corning). […] Phosphorylated ERK1/2 (pERK) levels were subsequently recorded by EnSpire Alpha or Envision Multilabel plate reader (Perkin Elmer). […]
(§4) All cellular phosphorylation data were analyzed using 3-parameter non-linear regression curve in GraphPad Prism 7. […]

293/KLB cells = test: Agonist pERK AlphaLISA assay in 293/KLB cells; format: cell-based, human; conditions: 10 min at 37° C, n = 3
Description: 293T HEK cells expressing KLB (or KL) or Hep3B cells were plated to 5–6 x 10^4 cells/well density in 96-well cell culture plate coated with poly-D-Lysine (Corning). The cells were serum starved for four hours in 0.1% BSA fraction V (ThermoFisher) containing media prior to treatment with protein and/or an antagonist peptide at the mentioned concentrations for 10 min at 37° C. For the antagonist assays, a chosen fixed dose within the range of 0.8–30 nM (depending on the cell type) of FGF21 or FGF19 stimulant was added to all the wells. BaF3 cells expressing human KLB/FGFR1c or human KLB/FGFR4-1c chimera were seeded at 5 × 10^5 cells/well density in 96-well cell culture plate and serum-starved overnight. FGF21/19 analogs were diluted in 0.02% Tween-20 containing RPMI1640 medium and the cells were treated for 15 min at 37° C. Following the respective cell treatments, the cells were lysed (with lysis buffer provided in the kit) for 10 min at room temperature on a shaker and the lysate was mixed with reaction mixture (consisting of reaction buffer, activation buffer, acceptor and donor beads provided in the kit). Phosphorylated ERK1/2 (pERK) levels were subsequently recorded by EnSpire Alpha or Envision Multilabel plate reader (Perkin Elmer). The cell assays corresponding to 293/KLB or Hep3B cells were carried out with AlphaLISA SureFire Ultra pERK1/2 (Thr 202/Tyr204) kit (Perkin Elmer), and BaF3 cells were done using AlphaScreen pERK1/2 (Thr202/Tyr204) kit (Perkin Elmer).
as §1, with “7. Graphs are represented as relative maximal (100%) response of the positive control. All other test analog signals were adjusted accordingly as % values.” for “7.”

human FGFR1/KLB = test: Agonist pERK AlphaScreen assay in BaF3 cells, FGFR1/KLB; format: cell-based; conditions: BaF3 cells co-expressing KLB and FGFR1; 15 min at 37° C; n = 3
Source text: as §2, §3, §4

With “FGF19,A^194: FGF19 analog with single C-terminal lysine substitution to alanine” as the substance, how does the “pERK agonist activity, in words” value (Hep3B cells) read?
Its value is “comparable”.

What about the “pERK agonist activity, in words” value [1] of the same substance?
Its value is “no change in bioactivity”.

And the “pERK agonist activity, in words” value (293/KLB cells)?
The value was “nearly tenfold more active than FGF19”.

And the “pERK agonist activity, in words” value (human FGFR1/KLB)?
The value was “enhanced signaling at the FGFR1/KLB complex by approximately ten-fold”.
